Series [1] concerns esterases in rabbit cornea, iris–ciliary body and aqueous humor. Also noted: method as in PMID 16223870. The following applies: 1000 μM; cited from earlier work.
Series [2] has as its system CES2 (rabbit ocular tissue homogenates). The following applies: for FDA hydrolysis rate: 100 μM FDA.
The test system of series [3] is CES2 (pig ocular tissue homogenates). Conditions: for FDA hydrolysis rate: 100 μM FDA.
The next series relates to most esterases. Conditions: cited from earlier work.
Series [4] relates to esterases in pig cornea homogenate (NPA hydrolysis). The experiment in a line: Inhibition of NPA hydrolysis in pig cornea. Format: biochemical. The following applies: 0.1 mM NPA; for IC50: for PMSF no unique IC50, concentration giving 50% inhibition, read-out: IC50 (this study), inhibition of NPA hydrolysis. As to the method:
NPA hydrolysis was performed with a slight modification to our previous protocol[22] in clear flat-bottom 96-well Thermo Scientific Sterilin Microtiter plates at 37 °C. Diluted ocular samples (8 μg of protein in 80 μL of PBS) were pipetted into the reaction wells, and the background absorbance was measured at 405 nm for 10 min of preincubation. […] Changes in absorbance at 405 nm were recorded with a Victor^2 Microplate Reader (PerkinElmer Wallac 1420, St. Paul, MN) for 45 min with 90 s reading intervals. 4-Nitrophenol was used to generate a standard curve (5–400 μM).
(§1) Inhibitors were tested at a final concentration range of 0.4–400 μM except for PMSF (0.3–2.5 mM).
(§2) The differences among hydrolytic activities were analyzed by ANOVA using the SigmaPlot software (Sigma Plot 13.0, Systat Software Inc., San Jose, CA), followed by Mann–Whitney U test for statistical comparisons between species and between tissues. Between species, statistically significant differences are ranked by the asterisk signs (in the order of *, p < 0.05; **, p < 0.01, and *** p < 0.001). Between tissues of the same species, statistically significant differences in comparison to conjunctiva are represented by the dagger sign (†, p < 0.05). Nonlinear regression analysis to determine the Km, Vmax, and IC50 values were done using GraphPad Prism (GraphPad, 5.04 Software Inc., San Diego, CA). For IC50, logarithms of inhibitor concentrations were plotted against the relative response (0 μM inhibitor = 100%).

The test system of series [5] is CES1 (DME hydrolysis in rabbit cornea and conjunctiva). Briefly: Inhibition of DME hydrolysis in rabbit cornea and conjunctiva. Format: biochemical. The following applies: 5 μM DME, at 200 μM inhibitor. As for the experimental part:
(§3) The hydrolysis of DME was monitored with slight modifications using the published bioluminescence-based assay[13],[21] where recombinant firefly luciferase enzyme was used to detect the D-luciferin that formed in the reaction mixture. The DME hydrolysis reaction was done in white-coated 96-well plates (Thermo Scientific Sterilin Microtiter Plates). Tissue lysates (5 μg of protein) were preincubated in 0.1 M PBS, pH 6.5. The reaction was initiated by adding DME to a final concentration of 5 μM in a final volume of 200 μL. The hydrolysis of DME was allowed to proceed for 20 min at 37 °C. The formed D-luciferin was quantitated by an injection of 73 μL of the luciferase detection reagent [3 μg of rLuciferase, 50 nmol of ATP, and 50 nmol of MgCl2 in PBS], and the luminescence was measured immediately with a Victor^2 Microplate Reader (560 nm, 1 s). Serial 2-fold dilutions of D-luciferin in 0.1 M PBS, pH 6.5 were used to generate the standard curve (0.156–10 μM).
as §1
(§4) The differences among hydrolytic activities were analyzed by ANOVA using the SigmaPlot software (Sigma Plot 13.0, Systat Software Inc., San Jose, CA), followed by Mann–Whitney U test for statistical comparisons between species and between tissues. […]

In series [6] the target is CES1 (DME hydrolysis in pig cornea and conjunctiva) (Sus scrofa, UniProt F1RF16). Briefly: Inhibition of DME hydrolysis in pig cornea and conjunctiva. Format: biochemical. Conditions: 5 μM DME, at 200 μM inhibitor, read-out: Extent of inhibition of DME hydrolysis. As to the method: as §3, §1, §4
The target in the next series is CES2 > CES1 (HLM). Also noted: method as in PMID 23648675, PMID 32955894. The following applies: read-out: Ki (literature); cited from earlier work.
The test system of series [7] is AADAC (pig ocular tissue homogenates). The experiment in a line: Phenacetin hydrolysis to p-phenetidine in pig ocular tissues. Conditions: 4 mM phenacetin, below detection limit. It is filed as in vitro ADME. As to the method: (§5) Phenacetin, a specific substrate for human AADAC,[18],[19],[24] was incubated with ocular tissue homogenates. The substrate (4 mM, final concentration) was preincubated in the 0.1 M Tris-HCl, pH 7.4, buffer at 37 °C for 5 min, after which the tissue samples (20 μg of protein) were added to start the reaction in the total reaction volume of 200 μL. All the reaction and control samples were incubated for 50 min at 37 °C with shaking. The reaction was terminated by adding 200 μL of ice-cold ACN containing acetaminophen at an 1 μM final concentration as the internal standard, followed by centrifugation at 4 °C for 10 min at 10 000g. A standard curve using the metabolite p-phenetidine (0.1–100 μM)[24] was established. The protein amount and incubation time were optimized from earlier pilot experiments for both procaine and phenacetin hydrolysis reactions. All incubations were performed in triplicate including the controls (control with no sample, control with no substrate), and the data are expressed as mean ± SD.
(§6) The metabolites from the above CES2 and AADAC assays were analyzed using a Waters (Milford, MA) Acquity ultra-performance liquid chromatographic (UPLC) coupled with a Q-Exactive Focus Orbitrap MS (Thermo Scientific). […]

Series [8] concerns AADAC (rabbit ocular tissue homogenates). The experiment in a line: Phenacetin hydrolysis to p-phenetidine in rabbit ocular tissues. It is filed as in vitro ADME. Conditions: 4 mM phenacetin, below detection limit. As for the experimental part:
as §5, §6

The test system of series [9] is CES2 (rabbit ocular tissue homogenates). Briefly: Procaine hydrolysis to PABA in rabbit ocular tissues. Format: in vitro ADME. Conditions: 100 μM procaine. As to the method:
(§7) Procaine, a known human CES2 substrate,[2],[17],[50] was incubated with rabbit and pig ocular tissues. After preincubation of the substrate (100 μM procaine in 0.1 M Tris-HCl, pH 7.4) at 37 °C, the reaction was initiated with tissue samples (20 μg of protein) in a total reaction volume of 200 μL. All the samples in parallel with the controls (no substrate or no enzyme) were incubated for 50 min at 37 °C on a shaker incubator (Heidolph Titramax 1000 platform shaker, Berlin Germany). The reaction was terminated by adding 200 μL of ice-cold ACN containing the internal standard procainamide (1 μM final concentration), followed by centrifugation at 4 °C for 10 min at 10 000g. Supernatants were collected for HPLC analysis. The standard curve was established using the hydrolysis product PABA with the concentration range 0.1–1000 nM.[51]
(§8) The metabolites from the above CES2 and AADAC assays were analyzed using a Waters (Milford, MA) Acquity ultra-performance liquid chromatographic (UPLC) coupled with a Q-Exactive Focus Orbitrap MS (Thermo Scientific). A Waters HSS T3 column (2.1 mm × 100 mm, 1.8 μm particle size) was used with elution gradients A (0.1% formic acid) and B (methanol) [0–0.5 min, 1% B; 0.5–4 min, 1%–20% B; 4–4.5 min, 20%–98% B; 4.5–5 min, 98% B; and 5–6 min, 98%–1% B]. The injection volume was 2 μL with a flow rate of 0.5 mL/min and a column temperature of 40 °C. […]

The test system of series [10] is CES2 (pig ocular tissue homogenates). The experiment in a line: Procaine hydrolysis to PABA in pig ocular tissues. Conditions: 100 μM procaine. Format: in vitro ADME. As to the method:
as §7, §8

In the next series the test system is rhCES2. Conditions: cited from earlier work.
In series [11] the test system is CES2 (FDA hydrolysis in pig retina). Briefly: Inhibition of FDA hydrolysis in pig retina. It is filed as biochemical. Conditions: 10 μM FDA. As to the method:
Diluted samples (5 μg of protein) were incubated at 37 °C in black 96-well Thermo Scientific Nunc F96 MicroWell plates. […] The fluorescein stock solution was used to generate a standard curve (0.156–10 μM) using 2-fold serial dilutions in 0.1 M PBS, pH 7.4.
as §1, §2

“And” between values parts separate entries of the source, which are not always exact repeats. Equal entries are not always repeated. Where two headings read alike, the source gives them in different places. Where only a bound is given, the exact number is not on record here.

Sequence of CES1 (DME hydrolysis in pig cornea and conjunctiva) (F1RF16 19-530): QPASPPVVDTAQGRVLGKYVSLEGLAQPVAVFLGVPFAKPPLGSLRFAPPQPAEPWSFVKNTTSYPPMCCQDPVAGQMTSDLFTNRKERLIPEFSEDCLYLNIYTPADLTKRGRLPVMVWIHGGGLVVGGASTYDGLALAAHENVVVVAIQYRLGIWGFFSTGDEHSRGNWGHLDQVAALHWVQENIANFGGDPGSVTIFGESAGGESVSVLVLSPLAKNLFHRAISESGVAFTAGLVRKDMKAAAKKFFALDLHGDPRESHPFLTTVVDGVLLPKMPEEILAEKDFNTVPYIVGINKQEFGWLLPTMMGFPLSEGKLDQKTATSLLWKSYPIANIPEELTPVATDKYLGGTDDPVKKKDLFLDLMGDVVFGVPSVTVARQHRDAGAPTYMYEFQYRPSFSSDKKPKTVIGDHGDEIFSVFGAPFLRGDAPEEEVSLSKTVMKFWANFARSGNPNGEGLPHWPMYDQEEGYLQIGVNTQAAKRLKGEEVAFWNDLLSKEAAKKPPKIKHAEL

For the compound `O=C(O)CN(CCN(CC(=O)O)CC(=O)O)CC(=O)O` [EDTA], in series [1], the “Inhibition of naphthyl acetate hydrolysis” value is 10%–30%.

A word on the Km: it is the substrate concentration at which the rate is half of its maximum. With `CC(=O)Oc1ccc2c(c1)Oc1cc(OC(C)=O)ccc1C21OC(=O)c2ccccc21` [FDA, fluorescein diacetate], the FDA hydrolysis rate is 0.1 to 0.2 nmol/min/mg in series [2] (rabbit RPE, aqueous humor and vitreous); over 1.0 nmol/min/mg in [2] (rabbit choroid, cornea and conjunctiva); 0.5 to 1 nmol/min/mg in [2] (rabbit retina); under 0.1 nmol/min/mg in series [3] (most pig ocular tissues (except retina)); 0.6 ± 0.1 nmol/min/mg in [3] (pig retina). Besides, the Km in series [2] (read-out: Km (this study), FDA hydrolysis in rabbit cornea) is 5.5 ± 0.4 µM; in [3] (read-out: Km (this study), FDA hydrolysis in pig retina), 16 ± 1.6 µM.

For orientation: IC50 means the midpoint of a concentration-inhibition curve. One may read the Ki as the equilibrium dissociation constant of an inhibitor or competing ligand from its target. With `O=S(=O)(F)Cc1ccccc1` [PMSF, phenylmethylsulfonyl fluoride], the IC50 was 541 µM in the series with most esterases (most esterases, read-out: IC50 (literature)); about 500 µM in the series on most esterases (other tissues, read-out: reported IC50 value in other tissues); 200 µM and ~200 µM in [4]. Moreover, the Ki at most esterases (most esterases, read-out: Ki (literature)) is 560 µM.

Usually inhibition stands for how much of the control response was suppressed. Regarding `C[C@@H]1CC[C@@]2(OC1)O[C@H]1[C@@H](O)[C@H]3[C@@H]4CC[C@H]5C[C@@H](O[C@@H]6O[C@H](CO)[C@H](O[C@@H]7O[C@H](CO)[C@@H](O)[C@H](O[C@@H]8OC[C@@H](O)[C@H](O)[C@H]8O)[C@H]7O[C@@H]7O[C@H](CO)[C@H](O)[C@H](O[C@@H]8O[C@H](CO)[C@@H](O)[C@H](O)[C@H]8O)[C@H]7O)[C@H](O)[C@H]6O)[C@H](O)C[C@]5(C)[C@H]4CC[C@]3(C)[C@H]1[C@@H]2C` [digitonin], the “Extent of inhibition of DME hydrolysis” value in series [5] amounted to 30%. Besides, the IC50 in series [4] is 38 µM. In addition, in [4] (highest inhibitor concentration 400 μM (PMSF 2.5 mM)), the “Extent of inhibition of NPA hydrolysis (maximal)” value is about 40%. The inhibition at 200 µM in series [6] came to 15%.

Take `COc1ccc([C@@H]2Sc3ccccc3N(CCN(C)C)C(=O)[C@@H]2OC(C)=O)cc1` [diltiazem]: the Ki at CES2 > CES1 (HLM) was 2.89 ± 0.39 µM.

Turning to `O=C(O)c1cc[c]([Hg][Cl])cc1` [p-chloromercuribenzoate], the “Inhibition of naphthyl acetate hydrolysis” value in [1] was 10%–30%.

Turning to `CCOc1ccc(NC(C)=O)cc1` [phenacetin], the “Phenacetin hydrolysis rate (p-phenetidine formation)” value was “undetectable” in series [7], under 0.1 pmol/min/mg in series [7] (listed as Phenacetin), “undetectable” in [8] and under 0.1 pmol/min/mg in [8] (listed as Phenacetin).

As for `CCN(CC)CCOC(=O)c1ccc(N)cc1` [procaine], the “Procaine hydrolysis rate (PABA formation)” value was 0.04 to 0.1 nmol/min/mg in [9] (rabbit aqueous humor and conjunctiva); 0.2 to 0.3 nmol/min/mg in [9] (rabbit cornea, vitreous, RPE and choroid); 0.02 nmol/min/mg in series [10] (pig aqueous humor (lowest)); 0.09 nmol/min/mg in series [10] (pig retina (highest)).

On to `CC(C)(C)NC[C@H](O)COc1nsnc1N1CCOCC1` [timolol], for which the “inhibition (literature, printed in IC50 column)” value in the series on rhCES2 (main human enzyme CES2, at 200 μM) is reported as 20% inhibition at 200 μM. In addition, in series [11], the “Extent of inhibition of FDA hydrolysis” value is “no inhibition”.

With `COc1ccc(CCN(C)CCCC(C#N)(c2ccc(OC)c(OC)c2)C(C)C)cc1OC` (centres unmarked) [verapamil], the IC50 with rhCES2 (rhCES2, read-out: IC50 (literature)) is 7.94 µM. Besides, the Ki at rhCES2 (rhCES2, read-out: Ki (literature)) was 3.84 ± 0.99 µM; on CES2 > CES1 (HLM), 11.5 ± 1.2 µM. In addition, in series [11], the “Extent of inhibition of FDA hydrolysis” value is listed as “no inhibition”.

Values taken from PMC8023712, “Carboxylesterase Activities and Protein Expression in Rabbit and Pig Ocular Tissues” (Molecular Pharmaceutics, 2021).
